According to patent US12146004B2, “Polymyxin compounds and uses thereof” (priority 2014, dated 2024):
≈ marks a conversion by molar mass, not a printed value. Read-outs that look alike come from different tables or passages of the source.

Columns and labels:
Type in all cases: cell-based
Escherichia coli = tested on: Escherichia coli
Procedure, shortened: (§1)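 Values are minimum inhibitory concentrations in μg/mL, measured across a panel of up to nine strains of each Gram-negative pathogen, some Polymyxin-elevated or resistant.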

Pseudomonas aeruginosa = tested on: Pseudomonas aeruginosa
Procedure, shortened: as §1

Klebsiella pneumoniae = tested on: Klebsiella pneumoniae
Procedure, shortened: as §1

Acinetobacter baumannii = tested on: Acinetobacter baumannii
Procedure, shortened: as §1

| Compound | MIC E. coli 058 (Escherichia coli) [µg/mL] | MIC E. coli ATCC 25922 (Escherichia coli) [µg/mL] | MIC E. coli NCTC 9001 (Escherichia coli) [µg/mL] | MIC P. aeruginosa ATCC 27853 (Pseudomonas aeruginosa) [µg/mL] | MIC P. aeruginosa CCUG 59347 (Pseudomonas aeruginosa) [µg/mL] | MIC K. pneumoniae 065 (Klebsiella pneumoniae) [µg/mL] | MIC K. pneumoniae ATCC 13882 (Klebsiella pneumoniae) [µg/mL] | MIC A. baumanii ATCC BAA-747 (Acinetobacter baumannii) [µg/mL] | MIC A. baumanii NCTC 13424 (Acinetobacter baumannii) [µg/mL] | MIC E. coli 061 (Escherichia coli) [µg/mL] | MIC P. aeruginosa 068 (Pseudomonas aeruginosa) [µg/mL] | MIC P. aeruginosa 070 (Pseudomonas aeruginosa) [µg/mL] | MIC K. pneumoniae 063 (Klebsiella pneumoniae) [µg/mL] | MIC A. baumanii 053 (Acinetobacter baumannii) [µg/mL] | MIC A. baumanii 056 (Acinetobacter baumannii) [µg/mL] | other results |
| --- | --- | --- | --- | --- | --- | --- | --- | --- | --- | --- | --- | --- | --- | --- | --- | --- |
| CCC(C)CC(CCN)C(=O)N[C@H](C(=O)N[C@@H](CN)C(=O)N[C@H]1CCNC(=O)[C@H]([C@@H](C)O)NC(=O)[C@H](CCN)NC(=O)[C@H](CCN)NC(=O)[C@H](CC(C)C)NC(=O)[C@@H](CC2CCCCC2)NC(=O)[C@H](CCN)NC1=O)C(C)O (single isomer, unassigned; isomer 2) [Example 47, 2-(2-aminoethyl)-4-methylhexanoyl L-Thr-L-Dap-polymyxin [D-cyclohexylalanine]-6 heptapeptide. Isomer 2] | 4 (≈ 3.6 µM) | 0.25 (≈ 0.225 µM) | 0.125 (≈ 0.113 µM) | 0.5 (≈ 0.45 µM) | 0.5 (≈ 0.45 µM) | 0.5 (≈ 0.45 µM) | 0.5 (≈ 0.45 µM) | 0.125 (≈ 0.113 µM) | 0.25 (≈ 0.225 µM) | – | – | – | – | – | – | – |
| CC(C)C[C@@H]1NC(=O)[C@@H](CC2CCCCC2)NC(=O)[C@H](CCN)NC(=O)[C@@H](NC(=O)[C@H](CN)NC(=O)[C@@H](NC(=O)CC(CN)c2ccc(Cl)cc2)C(C)O)CCNC(=O)[C@H]([C@@H](C)O)NC(=O)[C@H](CCN)NC(=O)[C@H](CCN)NC1=O (single isomer, unassigned; isomer 2) [Example 51, 4-amino-3-(4-chlorophenyl) butanoyl L-Thr-L-Dap-polymyxin [D-cyclohexylalanine]-6 heptapeptide. Isomer 2] | 2 (≈ 1.74 µM) | 0.5 (≈ 0.434 µM) | – | 0.5 (≈ 0.434 µM) | 0.5 (≈ 0.434 µM) | 0.25 (≈ 0.217 µM) | 0.5 (≈ 0.434 µM) | 0.5 (≈ 0.434 µM) | 0.25 (≈ 0.217 µM) | – | – | – | – | – | – | – |
| CC(C)C[C@@H]1NC(=O)[C@@H](CC2CCCCC2)NC(=O)[C@H](CCN)NC(=O)[C@@H](NC(=O)[C@H](CCN)NC(=O)[C@@H](NC(=O)C(CN)Cc2ccccc2)C(C)O)CCNC(=O)[C@H]([C@@H](C)O)NC(=O)[C@H](CCN)NC(=O)[C@H](CCN)NC1=O (single isomer, unassigned; isomer 2) [Example 53, 3-amino-2-benzylpropanoyl polymyxin [D-cyclohexylalanine]-6 nonapeptide. Isomer 2] | 4 (≈ 3.54 µM) | 0.25 (≈ 0.221 µM) | 0.125 (≈ 0.111 µM) | 0.25 (≈ 0.221 µM) | 0.5 (≈ 0.442 µM) | 4 (≈ 3.54 µM) | 0.25 (≈ 0.221 µM) | 0.5 (≈ 0.442 µM) | 0.5 (≈ 0.442 µM) | 32 (≈ 28.3 µM) | 8 (≈ 7.08 µM) | 8 (≈ 7.08 µM) | 64 (≈ 56.6 µM) | 64 (≈ 56.6 µM) | 64 (≈ 56.6 µM) | – |
| CC(C)C[C@@H]1NC(=O)[C@@H](CC2CCCCC2)NC(=O)[C@H](CCN)NC(=O)[C@@H](NC(=O)[C@H](CCN)NC(=O)[C@@H](NC(=O)C(CCN)c2ccc(F)cc2)C(C)O)CCNC(=O)[C@H]([C@@H](C)O)NC(=O)[C@H](CCN)NC(=O)[C@H](CCN)NC1=O (single isomer, unassigned; isomer 2) [Example 54, 4-amino-2-(4-fluorophenyl) butanoyl polymyxin [D-cyclohexylalanine]-6 nonapeptide isomer 2] | 4 (≈ 3.48 µM) | 0.125 (≈ 0.109 µM) | 0.06 (≈ 0.0522 µM) | 0.25 (≈ 0.218 µM) | 0.5 (≈ 0.435 µM) | 1 (≈ 0.871 µM) | 0.25 (≈ 0.218 µM) | 0.125 (≈ 0.109 µM) | 0.25 (≈ 0.218 µM) | 16 (≈ 13.9 µM) | 4 (≈ 3.48 µM) | 4 (≈ 3.48 µM) | 32 (≈ 27.9 µM) | 32 (≈ 27.9 µM) | 8 (≈ 6.97 µM) | – |
| CC(C)C[C@@H]1NC(=O)[C@@H](CC2CCCCC2)NC(=O)[C@H](CCN)NC(=O)[C@@H](NC(=O)[C@H](CCN)NC(=O)[C@@H](NC(=O)C(CCN)c2cccc(Cl)c2)[C@@H](C)O)CCNC(=O)[C@H]([C@@H](C)O)NC(=O)[C@H](CCN)NC(=O)[C@H](CCN)NC1=O (single isomer, unassigned; isomer 2) [Example 55, 4-amino-2-(3-chlorophenyl) butanoyl polymyxin [D-cyclohexylalanine]-6 nonapeptide. isomer 2] | 2 (≈ 1.72 µM) | 0.25 (≈ 0.215 µM) | 0.06 (≈ 0.0515 µM) | 0.125 (≈ 0.107 µM) | 0.5 (≈ 0.429 µM) | 1 (≈ 0.858 µM) | 0.25 (≈ 0.215 µM) | 0.125 (≈ 0.107 µM) | 0.25 (≈ 0.215 µM) | 16 (≈ 13.7 µM) | 4 (≈ 3.43 µM) | 4 (≈ 3.43 µM) | 16 (≈ 13.7 µM) | 8 (≈ 6.87 µM) | 4 (≈ 3.43 µM) | – |
| CC(C)C[C@@H]1NC(=O)[C@@H](CC2CCCCC2)NC(=O)[C@H](CCN)NC(=O)[C@@H](NC(=O)[C@H](CCN)NC(=O)[C@@H](NC(=O)CC(CN)c2ccccc2)[C@@H](C)O)CCNC(=O)[C@H]([C@@H](C)O)NC(=O)[C@H](CCN)NC(=O)[C@H](CCN)NC1=O (single isomer, unassigned; isomer 2) [Example 57, 4-amino-3-phenylbutanoyl polymyxin [D-cyclohexylalanine]-6 nonapeptide isomer 2] | – | – | – | – | – | – | – | – | – | – | – | – | – | – | – | MIC E. coli 058 (Escherichia coli; strain 058): 16 µg/mL (≈ 14.2 µM); MIC E. coli ATCC 25922 (Escherichia coli; strain ATCC 25922): 0.25 µg/mL (≈ 0.221 µM); MIC P. aeruginosa ATCC 27853 (Pseudomonas aeruginosa; strain ATCC 27853): 0.25 µg/mL (≈ 0.221 µM); MIC P. aeruginosa CCUG 59347 (Pseudomonas aeruginosa; strain CCUG 59347): 0.5 µg/mL (≈ 0.442 µM); MIC K. pneumoniae 065 (Klebsiella pneumoniae; strain 065): 8 µg/mL (≈ 7.08 µM); MIC K. pneumoniae ATCC 13882 (Klebsiella pneumoniae; strain ATCC 13882): 0.25 µg/mL (≈ 0.221 µM); MIC A. baumanii ATCC BAA-747 (Acinetobacter baumannii; strain ATCC BAA-747): 1 µg/mL (≈ 0.885 µM); MIC A. baumanii NCTC 13424 (Acinetobacter baumannii; strain NCTC 13424): 1 µg/mL (≈ 0.885 µM) |
| CC(C)C[C@@H]1NC(=O)[C@@H](CC2CCCCC2)NC(=O)[C@H](CCN)NC(=O)[C@@H](NC(=O)[C@H](CN)NC(=O)[C@@H](NC(=O)CC(CN)Cc2ccccc2)[C@@H](C)O)CCNC(=O)[C@H]([C@@H](C)O)NC(=O)[C@H](CCN)NC(=O)[C@H](CCN)NC1=O (single isomer, unassigned; isomer 2) [Example 59, 4-amino-3-benzylbutanoyl L-Thr-L-Dap-polymyxin [D-cyclohexylalanine]-6 heptapeptide. Isomer 2] | – | – | – | – | – | – | – | – | – | – | – | – | – | – | – | MIC E. coli 058 (Escherichia coli; strain 058): 2 µg/mL (≈ 1.77 µM); MIC E. coli ATCC 25922 (Escherichia coli; strain ATCC 25922): 0.125 µg/mL (≈ 0.111 µM); MIC E. coli NCTC 9001 (Escherichia coli; strain NCTC 9001): 0.06 µg/mL (≈ 0.0531 µM); MIC P. aeruginosa 068 (Pseudomonas aeruginosa; strain 068): 4 µg/mL (≈ 3.54 µM); MIC P. aeruginosa 070 (Pseudomonas aeruginosa; strain 070): 8 µg/mL (≈ 7.08 µM); MIC P. aeruginosa ATCC 27853 (Pseudomonas aeruginosa; strain ATCC 27853): 0.25 µg/mL (≈ 0.221 µM); MIC P. aeruginosa CCUG 59347 (Pseudomonas aeruginosa; strain CCUG 59347): 0.25 µg/mL (≈ 0.221 µM); MIC K. pneumoniae 063 (Klebsiella pneumoniae; strain 063): 32 µg/mL (≈ 28.3 µM); MIC K. pneumoniae 065 (Klebsiella pneumoniae; strain 065): 2 µg/mL (≈ 1.77 µM); MIC K. pneumoniae ATCC 4352 (Klebsiella pneumoniae; strain ATCC 4352): 0.125 µg/mL (≈ 0.111 µM); MIC K. pneumoniae ATCC 13882 (Klebsiella pneumoniae; strain ATCC 13882): 0.25 µg/mL (≈ 0.221 µM); MIC A. baumanii 053 (Acinetobacter baumannii; strain 053): 32 µg/mL (≈ 28.3 µM); MIC A. baumanii 056 (Acinetobacter baumannii; strain 056): 16 µg/mL (≈ 14.2 µM); MIC A. baumanii ATCC BAA-747 (Acinetobacter baumannii; strain ATCC BAA-747): 0.03 µg/mL (≈ 0.0265 µM); MIC A. baumanii NCTC 13424 (Acinetobacter baumannii; strain NCTC 13424): 0.06 µg/mL (≈ 0.0531 µM) |
| CC(C)C[C@@H]1NC(=O)[C@@H](CC2CCCCC2)NC(=O)[C@H](CCN)NC(=O)[C@@H](NC(=O)[C@H](CN)NC(=O)[C@@H](NC(=O)CCC(N)c2ccccc2)[C@@H](C)O)CCNC(=O)[C@H]([C@@H](C)O)NC(=O)[C@H](CCN)NC(=O)[C@H](CCN)NC1=O (single isomer, unassigned; isomer 2) [Example 61, 4-amino-4-phenylbutanoyl L-Thr-L-Dap-polymyxin [D-cyclohexylalanine]-6 heptapeptide. Isomer 2] | 8 (≈ 7.17 µM) | 0.25 (≈ 0.224 µM) | – | 0.25 (≈ 0.224 µM) | 0.5 (≈ 0.448 µM) | 32 (≈ 28.7 µM) | 0.25 (≈ 0.224 µM) | 0.25 (≈ 0.224 µM) | 0.25 (≈ 0.224 µM) | – | – | – | – | – | – | – |
| CC(C)C[C@@H]1NC(=O)[C@@H](CC2CCCCC2)NC(=O)[C@H](CCN)NC(=O)[C@@H](NC(=O)[C@H](CCN)NC(=O)[C@@H](NC(=O)C(CCN)c2ccccc2)[C@@H](C)O)CCNC(=O)[C@H]([C@@H](C)O)NC(=O)[C@H](CCN)NC(=O)[C@H](CCN)NC1=O (single isomer, unassigned; isomer 2) [Example 64, 4-amino-2-phenylbutanoyl polymyxin [D-cyclohexylalanine]-6 nonapeptide isomer 2] | 8 (≈ 7.08 µM) | 0.125 (≈ 0.111 µM) | – | 0.25 (≈ 0.221 µM) | 0.25 (≈ 0.221 µM) | 4 (≈ 3.54 µM) | 0.25 (≈ 0.221 µM) | 0.125 (≈ 0.111 µM) | 0.25 (≈ 0.221 µM) | 32 (≈ 28.3 µM) | 8 (≈ 7.08 µM) | 16 (≈ 14.2 µM) | 64 (≈ 56.6 µM) | 32 (≈ 28.3 µM) | 32 (≈ 28.3 µM) | – |
| CC(C)C[C@@H]1NC(=O)[C@@H](CC2CCCCC2)NC(=O)[C@H](CCN)NC(=O)[C@@H](NC(=O)[C@H](CN)NC(=O)[C@@H](NC(=O)C(CCN)Cc2ccccc2F)[C@@H](C)O)CCNC(=O)[C@H]([C@@H](C)O)NC(=O)[C@H](CCN)NC(=O)[C@H](CCN)NC1=O (single isomer, unassigned; isomer 2) [Example 65, 4-amino-2-(2-fluorobenzyl) butanoyl L-Thr-L-Dap-polymyxin [D-cyclohexylalanine]-6 heptapeptide. Isomer 2] | 4 (≈ 3.48 µM) | 0.25 (≈ 0.218 µM) | – | 0.5 (≈ 0.435 µM) | 0.5 (≈ 0.435 µM) | 2 (≈ 1.74 µM) | 0.25 (≈ 0.218 µM) | 0.25 (≈ 0.218 µM) | 1 (≈ 0.871 µM) | 16 (≈ 13.9 µM) | 2 (≈ 1.74 µM) | 2 (≈ 1.74 µM) | 16 (≈ 13.9 µM) | >64 | >64 | – |
